Results taken from patent US20260001876A1, “Compounds and Their Use as PDE4 Activators” (Mironid Limited, priority 2022, published 2026).

Experiments:
[1] = tested on: m-IMCD3 cells expressing PDE4 long forms; test: cAMP levels in assay media of PGE2-stimulated m-IMCD3 3D cell culture; format: cell-based; details: Mus musculus, mIMCD3, compared to 100% for (DMSO + PGE2), read-out: cAMP level (% of PGE2-stimulated); for activity at 3 µM: 3 μM test compound
Experimental: (§1) HEK 293 and MDCK cells (Public Health England, Cell Culture Collections) were maintained in Dulbecco's Modified Eagle's Medium (DMEM) supplemented with 10% (v/v) fetal bovine serum (FBS) (Seralab), 2 mM L-glutamine and 100 U/mL penicillin streptomycin cocktail (ThermoFisher); termed complete media. Clonal HEK 293 cell lines were maintained in complete media supplemented with 0.6 mg/ml G418 (Enzo Life Sciences). Mouse inner medullary collecting duct (m-IMCD3) cells [American Type Culture Collection (ATCC)] were maintained in media consisting of DMEM/Hams F-12 50/50 Mix (DMEM F12; Corning) supplemented with penicillin streptomycin cocktail (100 U/mL) and FBS (10% v/v) (DMEM F12-10% FBS).
Experiment 2: Reduction of CAMP Levels in m-IMCD3 Cell Culture Treated with PDE4 Long Form Activators
Activation of intracellular PDE4 long forms leads to a reduction of both intracellular CAMP and externalised cAMP (Omar et al., PNAS 116:13320-13329, 2019). This reduction may be measured in the cell culture media supernatant of 3D cystic cell cultures, such as in the m-IMCD3 cell cyst suppression assay described in Experiment 3.
Following the completion of the m-IMCD3 cell cyst suppression assay (Experiment 3), the CAMP levels in the assay media from individual or pooled assay wells was measured using a CAMP ELISA kit (Enzo Life Sciences) or a LANCE Ultra CAMP kit (PerkinElmer) according to the manufacturer's instructions.
Treatment with PDE4 long form activators reduced CAMP levels in PGE2-stimulated m-IMCD3 cell culture.

m-IMCD3 cells = test: Inhibition of PGE2-stimulated in vitro cyst formation in m-IMCD3 cells (3D culture); format: cell-based; details: Mus musculus, mIMCD3, 144 h, mean cyst area, 100% for (DMSO + PGE2) and 0% for DMSO control, 6 days of culture; for activity at 3 µM: read-out: % Cyst area* after incubation with 3 μM test compound; for activity at 10 µM: read-out: % Cyst area* after incubation with 10 μM test compound
Experimental: as §1
Experiment 3: Inhibition of In Vitro Cyst Formation in m-IMCD3 Cells Treated with PDE4 Long Form Activators
The mouse Inner Medullary Collecting Duct cell line (m-IMCD3) spontaneously forms cystic spheroids in 3D culture with a Type 1 collagen/Matrigel extracellular matrix. This process can be stimulated with agents which raise intracellular cAMP and is used as an in vitro model for the formation of cystic structures in the kidneys of patients with ADPKD.
Rat Collagen I (Fisher Scientific) is prepared on ice by neutralising with 1M NaOH and diluting with a 2× volume of DMEM/F12+10% FBS. This is mixed 1:1.1 with ice cold Matrigel (Corning) for coating plates (coating mix), and 1:0.93 with Matrigel for cell plating (plating mix).
The assay is conducted in the wells of a 96-well plate culture dish using a total volume of 130 μL of collagen/Matrigel/DMEM F12-10% FBS suspension in growth media for each matrix plug per individual well. Initially, 30 μL of collagen/Matrigel/DMEM F12-10% FBS (coating mix) is added into the well of a 96 well plate and the collagen is set to a gel by incubating at 37° C. for at least 15 minutes. A second layer of 100 μL collagen/Matrigel suspension (plating mix) containing m-IMCD3 cells (2.75×10^6 m-IMCD3 cells per 96-well plate) is layered over the coating mix and the collagen/Matrigel/cell mix again set to a gel by incubating at 37° C. Cell cultures are maintained at 37° C. in an atmosphere of 5% CO2, 95% air.
Between 18 and 24 h after plating, test compound(s) as DMSO stock solutions [0.1% (v/v) final DMSO concentration] and PGE2 (100 nM final concentration) in DMEM F12-10% FBS are added in quadruplicate wells per condition. Media, together with the test compound and PGE2 are replenished after 2 or 3 days. After 6 days of culture z stack images of the wells are captured using the Nikon Eclipse Ti2-E microscope. Nikon General Analysis software is used to measure the following parameters in each well: the mean cyst area, the number of cysts, and the total cyst area.
PDE4 long form activators inhibited in vitro cyst formation in m-IMCD3 cells. Data are shown in Table 4 as mean cyst area (%), compared to 100% for (DMSO+PGE2) and 0% for DMSO control.

| SMILES | activity at 3 µM [1] [%] | activity at 3 µM (m-IMCD3 cells) [%] | activity at 10 µM (m-IMCD3 cells) [%] | activity at 10 µM ([1]; 10 μM test compound) [%] |
| --- | --- | --- | --- | --- |
| CCN1CC2CCC(C1)N2c1ccc2c(n1)CCN(S(=O)(=O)Cc1ccccc1)C2 [Example 163, 6-(benzylsulfonyl)-2-(3-ethyl-3,8-diazabicyclo[3.2.1]octan-8-yl)-5,6,7,8-tetrahydro-1,6-naphthyridine] | 39 | -1 | – | – |
| O=C(N[C@H]1CCOc2ccccc21)N1CCc2nc(N3C4CCC3CNC4)ccc2C1 [Example 166, 2-(3,8-diazabicyclo[3.2.1]octan-8-yl)-N—((S)-chroman-4-yl)-7,8-dihydro-1,6-naphthyridine-6(5H)-carboxamide] | 35 | 3 | – | – |
| CC1(CC(=O)N2Cc3ccc(N4C5CCC4CNC5)nc3C2)CCCC1 [Example 129, 1-(2-(3,8-diazabicyclo[3.2.1]octan-8-yl)-5,7-dihydro-6H-pyrrolo[3,4-b]pyridin-6-yl)-2-(1-methylcyclopentyl)ethan-1-one] | 44 | – | 2 | – |
| CN1CC2CCC(C1)N2c1ccc2c(n1)CN(C(=O)NC1CCC(F)(F)CC1)C2 [Example 91, N-(4,4-difluorocyclohexyl)-2-(3-methyl-3,8-diazabicyclo[3.2.1]octan-8-yl)-5,7-dihydro-6H-pyrrolo[3,4-b]pyridine-6-carboxamide] | 31 | – | -5 | – |
| N#Cc1ccc(CC(=O)N2CCc3nc(N4C5CCC4CNC5)ncc3C2)cc1 [Example 136, 4-(2-(2-(3,8-diazabicyclo[3.2.1]octan-8-yl)-7,8-dihydropyrido[4,3-d]pyrimidin-6(5H)-yl)-2-oxoethyl)benzonitrile] | 38 | 1 | – | – |
| O=S(=O)(Cc1ccccc1)N1CCc2nc(N3C4CCC3CNC4)ccc2C1 [Example 162, 6-(benzylsulfonyl)-2-(3,8-diazabicyclo[3.2.1]octan-8-yl)-5,6,7,8-tetrahydro-1,6-naphthyridine] | 38 | -3 | – | – |
| Cc1ccccc1C(=O)N1CCc2nc(N3C4CCC3CNC4)ccc2C1 [Example 122, (2-(3,8-diazabicyclo[3.2.1]octan-8-yl)-7,8-dihydro-1,6-naphthyridin-6(5H)-yl)(o-tolyl)methanone] | 66 | -1 | – | – |
| O=C(CC1CCCC1)N1CCc2nc(N3CCN4CCC[C@H]4C3)ccc2C1 [Example 113, (S)-2-cyclopentyl-1-(2-(hexahydropyrrolo[1,2-a]pyrazin-2 (1H)-yl)-7,8-dihydro-1,6-naphthyridin-6(5H)-yl)ethan-1-one] | 63 | – | -4 | – |
| O=C(CC1CCCC1)N1CCc2nc(N3C[C@H]4C[C@@H]3CN4)ccc2C1 [Example 156, 1-(2-((1R,4R)-2,5-diazabicyclo[2.2.1]heptan-2-yl)-7,8-dihydro-1,6-naphthyridin-6(5H)-yl)-2-cyclopentylethan-1-one] | 49 | 4 | – | – |
| O=C(CC1CCCC1)N1CCc2nc(N3C4CCCC3CNC4)ccc2C1 [Example 151, 1-(2-(3,9-diazabicyclo[3.3.1]nonan-9-yl)-7,8-dihydro-1,6-naphthyridin-6(5H)-yl)-2-cyclopentylethan-1-one] | 51 | -8 | – | – |
| COc1ccccc1C(=O)N1CCc2nc(N3C4CCC3CNC4)ccc2C1 [Example 121, (2-(3,8-diazabicyclo[3.2.1]octan-8-yl)-7,8-dihydro-1,6-naphthyridin-6(5H)-yl)(2-methoxyphenyl)methanone] | 44 | 8 | – | – |
| O=C(CC1CCCC1)N1CCc2nc(N3CC4CCCC(C3)N4)ccc2C1 [Example 152, 1-(2-(3,9-diazabicyclo[3.3.1]nonan-3-yl)-7,8-dihydro-1,6-naphthyridin-6(5H)-yl)-2-cyclopentylethan-1-one] | 41 | -6 | – | – |
| O=C(CC1CCC(F)(F)CC1)N1CCc2nc(N3CCNCC3)ccc2C1 [Example 111, 2-(4,4-difluorocyclohexyl)-1-(2-(piperazin-1-yl)-7,8-dihydro-1,6-naphthyridin-6(5H)-yl)ethan-1-one] | – | – | -3 | 38 |
| O=S(=O)(Cc1ccc(F)cc1)N1CCc2nc(N3C4CCC3CNC4)ccc2C1 [Example 158, 2-(3,8-diazabicyclo[3.2.1]octan-8-yl)-6-((4-fluorobenzyl)sulfonyl)-5,6,7,8-tetrahydro-1,6-naphthyridine] | 46 | 5 | – | – |
| O=C(CC1CCCC1)N1CCc2nc(N3CCN4CCC[C@@H]4C3)ccc2C1 [Example 112, (R)-2-cyclopentyl-1-(2-(hexahydropyrrolo[1,2-a]pyrazin-2 (1H)-yl)-7,8-dihydro-1,6-naphthyridin-6(5H)-yl)ethan-1-one] | 54 | – | -6 | – |
| O=C(CC1CCCC1)N1CCc2nc(C3CCN(CCO)CC3)ccc2C1 [Example 115, 2-cyclopentyl-1-(2-(1-(2-hydroxyethyl)piperidin-4-yl)-7,8-dihydro-1,6-naphthyridin-6(5H)-yl)ethan-1-one] | 32 | – | -3 | – |
| O=C(CC1CCCC1)N1CCc2nc(N3C[C@@H]4C[C@H]3CN4)ccc2C1 [Example 155, 1-(2-((1S,4S)-2,5-diazabicyclo[2.2.1]heptan-2-yl)-7,8-dihydro-1,6-naphthyridin-6(5H)-yl)-2-cyclopentylethan-1-one] | 63 | – | – | – |
| O=S(=O)(Cc1ccc(F)cc1)N1CCc2nc(N3CCNCC3)ccc2C1 [Example 160, 6-((4-fluorobenzyl)sulfonyl)-2-(piperazin-1-yl)-5,6,7,8-tetrahydro-1,6-naphthyridine] | 35 | -4 | – | – |
| CC(C)(C)CC(=O)N1CCc2nc(N3C4CCC3CNC4)ccc2C1 [Example 42, 1-(2-(3,8-diazabicyclo[3.2.1]octan-8-yl)-7,8-dihydro-1,6-naphthyridin-6(5H)-yl)-3,3-dimethylbutan-1-one] | 28 | – | 0 | – |
| O=C(c1ccc(F)cc1)N1CCc2nc(N3CCNCC3)ncc2C1 [Example 147, (4-fluorophenyl)(2-(piperazin-1-yl)-7,8-dihydropyrido[4,3-d]pyrimidin-6(5H)-yl)methanone] | 40 | 4 | – | – |
| N#Cc1ccc(CC(=O)N2CCc3nc(N4CCNCC4)ncc3C2)cc1 [Example 137, 4-(2-oxo-2-(2-(piperazin-1-yl)-7,8-dihydropyrido[4,3-d]pyrimidin-6(5H)-yl)ethyl)benzonitrile] | – | 13 | – | – |
| O=C(NC1CCC(F)(F)CC1)N1CCc2nc(N3C4CCC3CNC4)ccc2C1 [Example 59, 2-(3,8-diazabicyclo[3.2.1]octan-8-yl)-N-(4,4-difluorocyclohexyl)-7,8-dihydro-1,6-naphthyridine-6(5H)-carboxamide] | – | – | -4 | – |
| O=C(CC1CCCC1)N1CCc2cnc(N3C4CCC3CNC4)nc2C1 [Example 148, 1-(2-(3,8-diazabicyclo[3.2.1]octan-8-yl)-5,8-dihydropyrido[3,4-d]pyrimidin-7 (6H)-yl)-2-cyclopentylethan-1-one] | – | 7 | – | – |
